Laboratory results as given in ChEMBL document CHEMBL1287678, “5-{2-[4-(2-methyl-5-quinolinyl)-1-piperazinyl]ethyl}-2(1H)-quinolinones and 3,4-dihydro-2(1H)-quinolinones: dual-acting 5-HT1 receptor antagonists and serotonin reuptake inhibitors. Part 3” (Bioorg Med Chem Lett, 2010).

Key:
[1] = target: T1, 5-hydroxytryptamine receptor 1A (Homo sapiens, UniProt P08908); assay: Antagonist activity at human 5-HT1A receptor expressed in HEK293 cells assessed as inhibition of GTPgammaS binding by scintillation proximity assay; assay type: functional, cell-based
T1 sequence (P08908 whole entry): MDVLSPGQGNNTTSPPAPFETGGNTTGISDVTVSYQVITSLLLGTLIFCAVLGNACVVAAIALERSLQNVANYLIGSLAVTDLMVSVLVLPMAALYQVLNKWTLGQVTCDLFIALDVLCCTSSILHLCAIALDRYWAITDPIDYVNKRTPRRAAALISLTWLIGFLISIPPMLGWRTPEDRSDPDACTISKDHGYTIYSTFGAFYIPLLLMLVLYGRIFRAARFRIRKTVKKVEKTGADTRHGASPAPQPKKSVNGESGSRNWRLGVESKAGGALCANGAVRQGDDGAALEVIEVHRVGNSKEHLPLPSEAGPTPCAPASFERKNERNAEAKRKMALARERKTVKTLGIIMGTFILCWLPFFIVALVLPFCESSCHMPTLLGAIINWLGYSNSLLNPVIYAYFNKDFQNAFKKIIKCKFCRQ

[2] = target: T2, 5-hydroxytryptamine receptor 1B (Homo sapiens, UniProt P28222); assay: Antagonist activity at human 5-HT1B receptor expressed in CHO cells assessed as inhibition of GTPgammaS binding by scintillation proximity assay; assay type: functional, cell-based
[3] = target: T3, 5-hydroxytryptamine receptor 1D (Homo sapiens, UniProt P28221); assay: Antagonist activity at human 5-HT1D receptor expressed in CHO cells assessed as inhibition of GTPgammaS binding by scintillation proximity assay; assay type: functional, cell-based
[4] = target: Sodium-dependent serotonin transporter (Homo sapiens, UniProt P31645); assay: Displacement of [3H]-citalopram in human SERT expressed in LLCPK cells by filtration assay; assay type: cell-based
[5] = target: T4, 5-hydroxytryptamine receptor 1A (Homo sapiens) (UniProt P08908); assay: Intrinsic activity at human 5-HT1A receptor expressed in HEK293 cells assessed as effect on GTPgammaS binding by scintillation proximity assay relative to 5HT; assay type: functional, cell-based
T4 sequence (whole entry): T1 sequence (P08908 whole entry)

[6] = target: Voltage-gated inwardly rectifying potassium channel KCNH2 (Homo sapiens, UniProt Q12809); assay: Displacement of [3H]-dofetilide in human hERG expressed in CHO cells by proximity assay; assay type: cell-based
[7] = tested on: Liver microsomes; assay: Intrinsic clearance in human liver microsomes; assay type: ADME, Microsome
[8] = Blood clearance in rat at 0.5 mg/kg, iv and 1 mg/kg, po; assay type: ADME, organism-based; details: whole blood
[9] = Volume of distribution at steady state in rat at 0.5 mg/kg, iv and 1 mg/kg, po; assay type: ADME, organism-based; details: in vivo, read-out: Vdss
[10] = Half life in rat at 0.5 mg/kg, iv and 1 mg/kg, po; assay type: ADME, organism-based; details: in vivo
[11] = Oral bioavailability in rat at 1 mg/kg; assay type: ADME, organism-based; details: in vivo
[12] = Ratio of drug level in brain to blood in rat at 0.5 mg/kg, iv and 1 mg/kg, po; assay type: ADME, organism-based; details: brain / whole blood
[13] = target: T3, 5-hydroxytryptamine receptor 1D; assay: Intrinsic activity at human 5-HT1D receptor expressed in CHO cells assessed as effect on GTPgammaS binding by scintillation proximity assay relative to 5HT; assay type: functional, cell-based
[14] = target: T2, 5-hydroxytryptamine receptor 1B; assay: Intrinsic activity at human 5-HT1B receptor expressed in CHO cells assessed as effect on GTPgammaS binding by scintillation proximity assay relative to 5HT; assay type: functional, cell-based
[15] = target: T2, 5-hydroxytryptamine receptor 1B; assay: Agonist activity at human 5-HT1B receptor expressed in CHO cells assessed as stimulation of GTPgammaS binding by scintillation proximity assay; assay type: functional, cell-based
[16] = target: T1, 5-hydroxytryptamine receptor 1A; assay: Agonist activity at human 5-HT1A receptor expressed in HEK293 cells assessed as stimulation of GTPgammaS binding by scintillation proximity assay; assay type: functional, cell-based
[17] = target: T3, 5-hydroxytryptamine receptor 1D; assay: Agonist activity at human 5-HT1D receptor expressed in CHO cells assessed as stimulation of GTPgammaS binding by scintillation proximity assay; assay type: functional, cell-based

T3 sequence (P28221 whole entry): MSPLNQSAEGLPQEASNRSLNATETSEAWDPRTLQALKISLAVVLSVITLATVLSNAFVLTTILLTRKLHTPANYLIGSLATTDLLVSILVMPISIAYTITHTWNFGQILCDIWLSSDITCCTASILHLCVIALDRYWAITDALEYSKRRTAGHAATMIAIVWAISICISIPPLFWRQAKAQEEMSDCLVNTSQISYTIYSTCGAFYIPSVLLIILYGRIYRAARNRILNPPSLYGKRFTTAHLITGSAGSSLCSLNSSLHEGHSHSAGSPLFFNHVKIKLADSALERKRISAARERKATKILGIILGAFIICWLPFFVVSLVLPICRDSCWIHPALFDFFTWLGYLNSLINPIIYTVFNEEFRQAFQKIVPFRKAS
Sequence of Voltage-gated inwardly rectifying potassium channel KCNH2 (Q12809 whole entry): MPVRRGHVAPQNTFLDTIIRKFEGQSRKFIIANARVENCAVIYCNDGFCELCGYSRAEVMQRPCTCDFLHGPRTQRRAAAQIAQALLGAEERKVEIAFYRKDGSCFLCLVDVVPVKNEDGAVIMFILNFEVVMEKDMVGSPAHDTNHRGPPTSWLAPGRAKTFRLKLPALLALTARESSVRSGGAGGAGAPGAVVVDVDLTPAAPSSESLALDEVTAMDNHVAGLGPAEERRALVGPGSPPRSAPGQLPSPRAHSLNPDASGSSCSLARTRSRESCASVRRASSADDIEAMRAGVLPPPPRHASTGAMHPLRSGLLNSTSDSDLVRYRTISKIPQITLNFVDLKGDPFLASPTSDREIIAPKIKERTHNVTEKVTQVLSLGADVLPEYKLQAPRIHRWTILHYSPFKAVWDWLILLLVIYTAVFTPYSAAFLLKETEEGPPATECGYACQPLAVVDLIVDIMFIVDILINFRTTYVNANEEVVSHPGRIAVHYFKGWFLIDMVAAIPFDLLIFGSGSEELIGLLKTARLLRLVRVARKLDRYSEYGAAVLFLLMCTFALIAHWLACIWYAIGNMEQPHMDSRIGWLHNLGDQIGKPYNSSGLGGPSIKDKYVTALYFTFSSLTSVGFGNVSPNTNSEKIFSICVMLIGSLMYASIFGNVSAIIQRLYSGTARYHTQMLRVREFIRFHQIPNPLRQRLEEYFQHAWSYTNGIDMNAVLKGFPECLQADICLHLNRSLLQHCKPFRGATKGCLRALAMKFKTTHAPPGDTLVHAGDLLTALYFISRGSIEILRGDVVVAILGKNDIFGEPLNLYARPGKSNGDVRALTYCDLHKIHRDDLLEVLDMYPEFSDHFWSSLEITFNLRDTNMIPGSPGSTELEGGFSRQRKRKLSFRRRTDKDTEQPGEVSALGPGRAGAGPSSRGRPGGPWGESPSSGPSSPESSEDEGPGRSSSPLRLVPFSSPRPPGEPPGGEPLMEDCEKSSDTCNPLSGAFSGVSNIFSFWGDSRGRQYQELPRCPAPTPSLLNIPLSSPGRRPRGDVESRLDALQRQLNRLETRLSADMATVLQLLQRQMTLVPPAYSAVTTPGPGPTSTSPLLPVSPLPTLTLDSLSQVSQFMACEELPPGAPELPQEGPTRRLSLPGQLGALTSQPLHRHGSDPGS
Sequence of Sodium-dependent serotonin transporter (P31645 whole entry): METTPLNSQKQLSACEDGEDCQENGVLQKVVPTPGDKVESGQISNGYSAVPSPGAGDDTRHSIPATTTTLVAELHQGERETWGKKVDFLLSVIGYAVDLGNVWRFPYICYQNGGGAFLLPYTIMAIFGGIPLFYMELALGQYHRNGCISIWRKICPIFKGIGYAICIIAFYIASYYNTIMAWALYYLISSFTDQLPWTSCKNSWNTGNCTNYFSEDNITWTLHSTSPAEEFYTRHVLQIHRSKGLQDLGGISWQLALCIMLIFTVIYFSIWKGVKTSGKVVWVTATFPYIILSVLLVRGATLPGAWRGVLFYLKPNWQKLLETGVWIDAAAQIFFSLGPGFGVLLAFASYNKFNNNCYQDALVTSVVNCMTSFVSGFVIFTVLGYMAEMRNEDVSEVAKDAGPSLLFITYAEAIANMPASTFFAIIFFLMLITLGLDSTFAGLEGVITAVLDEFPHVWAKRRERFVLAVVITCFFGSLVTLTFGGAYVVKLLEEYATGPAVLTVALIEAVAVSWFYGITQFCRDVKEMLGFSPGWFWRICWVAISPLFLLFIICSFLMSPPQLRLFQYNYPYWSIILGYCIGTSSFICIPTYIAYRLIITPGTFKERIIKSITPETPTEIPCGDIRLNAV
T2 sequence (P28222 whole entry): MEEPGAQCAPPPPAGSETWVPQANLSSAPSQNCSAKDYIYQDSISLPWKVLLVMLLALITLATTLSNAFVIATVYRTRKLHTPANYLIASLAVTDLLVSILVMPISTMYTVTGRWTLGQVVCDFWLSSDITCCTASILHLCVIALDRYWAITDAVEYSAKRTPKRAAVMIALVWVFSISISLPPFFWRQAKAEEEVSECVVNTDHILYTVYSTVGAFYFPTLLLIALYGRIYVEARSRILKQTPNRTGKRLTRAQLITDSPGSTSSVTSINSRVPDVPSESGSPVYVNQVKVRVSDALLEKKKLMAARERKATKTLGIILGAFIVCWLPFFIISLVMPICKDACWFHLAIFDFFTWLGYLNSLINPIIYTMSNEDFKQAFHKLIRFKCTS

Row | Structure (SMILES) | Ki [1] | Ki [2] | Ki [3] | Ki [4] | Intrinsic activity [5] | CL [7] | clearance [8] | Vd [9] | half-life [10] | bioavailability [11] | Kp [12] | Intrinsic activity [13] | Intrinsic activity [14] | EC50 [15] | EC50 [16] | EC50 [17] | Ki [6]
1 | Cc1ccc2c(N3CCN(CCc4cccc5c4CCC(=O)N5)CC3)cccc2n1 |  |  |  |  | 0 |  |  |  |  |  |  | 0 | 0 |  |  |  | 
2 | Cc1ccc2c(N3CCN(CCc4cccc5c4ccc(=O)n5C)CC3)cccc2n1 |  | 0.794 nM |  | 2.51 nM | 0.4 | 1.2 mL/min/g | 32 mL/min/kg | 2.1 L/kg | 78 min | 37% | 1.1 | 0.7 | 0 |  | 0.0316 nM | 1 nM | 10 µM
3 | Cc1ccc2c(N3CCN(CCc4c(C)ccc5c4CCC(=O)N5C)CC3)cccc2n1 | 0.631 nM |  | 1 nM | 25.1 nM | 0 | 1.3 mL/min/g | 9 mL/min/kg | 2 L/kg | 180 min | 83% | 0.4 | 0 | 0.4 | 398 nM |  |  | 0.794 µM
4 | Cc1ccc2c(N3CCN(CCc4cccc5c4ccc(=O)n5C)C(C)(C)C3)cccc2n1 | 1.58 nM | 0.501 nM | 0.501 nM |  | 0.3 | 3.8 mL/min/g | 34 mL/min/kg | 0.8 L/kg | 36 min | 27% | 1.1 | 0 |  |  |  |  | 
5 | Cc1ccc2c(N3CCN(CCc4c(C)ccc5c4CCC(=O)N5)CC3)cccc2n1 | 0.794 nM |  |  | 50.1 nM | 0.3 | < 0.5 mL/min/g | 7 mL/min/kg | 3 L/kg | 324 min | 73% | 0.8 | 0.5 | 0.4 | 200 nM |  | 5.01 nM | 3.98 µM
6 | Cc1ccc2c(N3CCN(CCc4cccc5c4OCC(=O)N5C)CC3)cccc2n1 |  |  |  |  |  | 2.4 mL/min/g |  |  |  |  |  |  |  |  |  |  | 
7 | Cc1ccc2c(N3CCN(CCc4cccc5[nH]c(=O)ccc45)CC3)cccc2n1 |  |  |  |  | 0 |  |  |  |  |  |  | 0 | 0 |  |  |  | 
8 | Cc1ccc2c(N3CCN(CCc4cccc5c4CCC(=O)N5C)CC3)cccc2n1 | 0.631 nM | 0.794 nM | 0.0794 nM | 12.6 nM | 0 |  |  |  |  |  |  | 0 | 0 |  |  |  | 3.98 µM
9 | Cc1ccc2c(N3CCN(CCc4cccc5c4OCC(=O)N5)CC3)cccc2n1 |  |  |  |  |  | 1 mL/min/g |  |  |  |  |  |  |  |  |  |  | 
10 | Cc1ccc2c(N3CCN(CCc4c(C)ccc5[nH]c(=O)ccc45)CC3)cccc2n1 | 1 nM |  |  | 100 nM | 0 |  |  |  |  |  |  | 0 | 0.4 | 501 nM |  |  | 

Further lines, with some results ahead:

Row | Ki [1] | Ki [2] | Ki [3] | Ki [4] | Intrinsic activity [5] | CL [7] | clearance [8] | Vd [9] | half-life [10] | bioavailability [11] | Kp [12] | Intrinsic activity [13] | Intrinsic activity [14] | EC50 [15] | EC50 [16] | EC50 [17] | Structure (SMILES) | Ki [6]
11 | 3.98 nM | > 1000 nM | > 1000 nM | 1 nM | 0 |  |  |  |  |  |  |  |  |  |  |  | Cc1ccc2c(N3CCN(CCc4c(C)ccc5c4ccc(=O)n5C)[C@@H](C)C3)cc(F)cc2n1 | 
12 | 3.98 nM | > 1000 nM | 20 nM | 0.501 nM | 0 | < 0.5 mL/min/g | 46 mL/min/kg | 2.7 L/kg | 72 min | 35% | 1.7 | 0 |  |  |  |  | Cc1ccc2c(N3CCN(CCc4c(C)ccc5c4ccc(=O)n5C)[C@@H](C)C3)cccc2n1 | 1.58 µM
13 | 0.398 nM | 31.6 nM | 0.398 nM | 12.6 nM | 0 |  |  |  |  |  |  | 0 | 0 |  |  |  | Cc1ccc2c(N3CCN(CCc4c(F)ccc5c4ccc(=O)n5C)CC3)cccc2n1 | 31.6 µM
14 | 3.98 nM |  | 3.98 nM | 15.8 nM | 0 |  |  |  |  |  |  | 0 | 0.5 | 316 nM |  |  | Cc1ccc2c(N3CCN(CCc4c(Cl)ccc5c4ccc(=O)n5C)CC3)cccc2n1 | 
15 | 1.26 nM | > 1000 nM | 39.8 nM | 1.26 nM | 0 | 0.9 mL/min/g | 31 mL/min/kg | 3.4 L/kg | 84 min | 82% | 0.8 | 0 |  |  |  |  | Cc1ccc2c(C3CCN(CCc4c(C)ccc5c4ccc(=O)n5C)CC3)cccc2n1 | 2 µM
16 | 0.631 nM |  | 2 nM | 12.6 nM | 0 | 1.5 mL/min/g | 28 mL/min/kg | 2.3 L/kg | 66 min | 88% | 0.5 | 0 | 0.4 | 63.1 nM |  |  | Cc1ccc2c(N3CCN(CCc4c(C)ccc5c4ccc(=O)n5C)CC3)cccc2n1 | 3.98 µM
17 | 1.26 nM | > 1000 nM | 2.51 nM | 3.98 nM | 0 | 1.2 mL/min/g | 21 mL/min/kg | 2.1 L/kg | 90 min | 31% | 0.4 | 0 |  |  |  |  | Cc1ccc2c(N3CCN(CCc4c(C)ccc5c4ccc(=O)n5C)[C@H](C)C3)cccc2n1 | 7.94 µM
18 | 1 nM | 0.794 nM | 0.126 nM | 0.501 nM | 0 |  |  |  |  |  |  | 0 | 0 |  |  |  | Cc1ccc2c(N3CCN(CCc4cccc5c4ccc(=O)n5C)[C@H](C)C3)cc(F)cc2n1 | 10 µM
19 | 1 nM | 316 nM | 1.26 nM | 0.501 nM | 0 | 0.8 mL/min/g | 34 mL/min/kg | 2 L/kg | 96 min | 34% | 1.2 | 0 | 0 |  |  |  | Cc1ccc2c(N3CCN(CCc4cccc5c4ccc(=O)n5C)[C@@H](C)C3)cc(F)cc2n1 | 6.31 µM
20 | 1.26 nM | > 1000 nM | 2 nM | 10 nM | 0 | 1.6 mL/min/g | 46 mL/min/kg | 2.4 L/kg | 42 min | 82% |  | 0 |  |  |  |  | Cc1ccc2c(N3CCN(CCc4c(C)ccc5c4ccc(=O)n5C)CC3)cc(F)cc2n1 | 2.51 µM
21 | 3.16 nM | 398 nM | 5.01 nM | 2.51 nM | 0 | 1.5 mL/min/g | 32 mL/min/kg | 1.2 L/kg | 36 min | 12% | 1.3 | 0 | 0 |  |  |  | Cc1ccc2c(N3CCN(CCc4cccc5c4ccc(=O)n5C)[C@@H](C)C3)cccc2n1 | 5.01 µM
